Laboratory results published in PubChem BioAssay AID2060602 (Molecular Pharmacology Branch, DTP, NCI, 2025).

Test system: 648629-189-R-J1-PDC complex spheroids viability
Test: Anticancer human tumor 648629-189-R-J1-PDC patient-derived bladder carcinoma cell line growth inhibition [CLK]
Settings: for IC50: curve of first compound; for viability, T/C: stronger effect = lower value
Summary of the method: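 Patient-derived tumor cells grown as complex spheroids with HUVEC endothelial cells and mesenchymal stem cells, treated with drug combinations. Concentrations descend in half-log steps from near clinical Cmax, or from 10 microM if Cmax unknown.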

[1] = second compound 0.0316 µM, first compound 0.0316 µM
[2] = second compound 0.0316 µM, first compound 0.1 µM
[3] = second compound 0.0316 µM, first compound 0.316 µM
[4] = second compound 0.0316 µM, first compound 1 µM
[5] = second compound 0.0316 µM, first compound 3.16 µM
[6] = second compound 0.0316 µM, first compound 10 µM
[7] = second compound 0.1 µM, first compound 0.0316 µM
[8] = second compound 0.1 µM, first compound 0.1 µM
[9] = second compound 0.1 µM, first compound 0.316 µM
[10] = second compound 0.1 µM, first compound 1 µM
[11] = second compound 0.1 µM, first compound 3.16 µM
[12] = second compound 0.1 µM, first compound 10 µM
[13] = second compound 0.316 µM, first compound 0.0316 µM
[14] = second compound 0.316 µM, first compound 0.1 µM
[15] = second compound 0.316 µM, first compound 0.316 µM
[16] = second compound 0.316 µM, first compound 1 µM
[17] = second compound 0.316 µM, first compound 3.16 µM
[18] = second compound 0.316 µM, first compound 10 µM
[19] = second compound 1 µM, first compound 0.0316 µM
[20] = second compound 1 µM, first compound 0.1 µM
[21] = second compound 1 µM, first compound 0.316 µM
[22] = second compound 1 µM, first compound 1 µM
[23] = second compound 1 µM, first compound 3.16 µM
[24] = second compound 1 µM, first compound 10 µM
[25] = second compound 3.16 µM, first compound 0.0316 µM
[26] = second compound 3.16 µM, first compound 0.1 µM
[27] = second compound 3.16 µM, first compound 0.316 µM
[28] = second compound 3.16 µM, first compound 1 µM
[29] = second compound 3.16 µM, first compound 3.16 µM
[30] = second compound 3.16 µM, first compound 10 µM
[31] = second compound 10 µM, first compound 0.0316 µM
[32] = second compound 10 µM, first compound 0.1 µM
[33] = second compound 10 µM, first compound 0.316 µM
[34] = second compound 10 µM, first compound 1 µM
[35] = second compound 10 µM, first compound 3.16 µM
[36] = second compound 10 µM, first compound 10 µM
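Throughout, for viability, T/C: drug exposure lasted seven days before viability readout; 100% = DMSO vehicle control wells.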

CC(C)CC(NC(=O)C(Cc1ccccc1)NC(=O)c1cnccn1)B(O)O (stereo unspecified) + CN1CCN(c2cc(C(=O)Nc3cc4cc(-c5cnn(C)c5)ccc4cn3)ccn2)CC1
IC50 (second compound 0.0316 µM): 4.64 nM | IC50 (second compound 0.1 µM): 4.8 nM | IC50 (second compound 0.316 µM): < 0.949 nM | IC50 (second compound 1 µM): < 0.949 nM | IC50 (second compound 3.16 µM): < 0.949 nM | IC50 (second compound 10 µM): < 0.949 nM | viability, T/C (second compound 0.0316 µM, first compound 0.000949 µM): 116% | viability, T/C (second compound 0.0316 µM, first compound 0.003 µM): 79.8% | viability, T/C (second compound 0.0316 µM, first compound 0.00949 µM): 0.91% | viability, T/C (second compound 0.0316 µM, first compound 0.03 µM): 0.37% | viability, T/C (second compound 0.0316 µM, first compound 0.0949 µM): 0.28% | viability, T/C (second compound 0.0316 µM, first compound 0.3 µM): 0.14% | viability, T/C (second compound 0.1 µM, first compound 0.000949 µM): 94.9% | viability, T/C (second compound 0.1 µM, first compound 0.003 µM): 82.8% | viability, T/C (second compound 0.1 µM, first compound 0.00949 µM): 2.63% | viability, T/C (second compound 0.1 µM, first compound 0.03 µM): 0.49% | viability, T/C (second compound 0.1 µM, first compound 0.0949 µM): 0.17% | viability, T/C (second compound 0.1 µM, first compound 0.3 µM): 0.16% | viability, T/C (second compound 0.316 µM, first compound 0.000949 µM): 41.5% | viability, T/C (second compound 0.316 µM, first compound 0.003 µM): 18.5% | viability, T/C (second compound 0.316 µM, first compound 0.00949 µM): 0.32% | viability, T/C (second compound 0.316 µM, first compound 0.03 µM): 0.16% | viability, T/C (second compound 0.316 µM, first compound 0.0949 µM): 0.15% | viability, T/C (second compound 0.316 µM, first compound 0.3 µM): 0.14% | viability, T/C (second compound 1 µM, first compound 0.000949 µM): 0.66% | viability, T/C (second compound 1 µM, first compound 0.003 µM): 0.93% | viability, T/C (second compound 1 µM, first compound 0.00949 µM): 0.16% | viability, T/C (second compound 1 µM, first compound 0.03 µM): 0.1% | viability, T/C (second compound 1 µM, first compound 0.0949 µM): 0.17% | viability, T/C (second compound 1 µM, first compound 0.3 µM): 0.8% | viability, T/C (second compound 3.16 µM, first compound 0.000949 µM): 0.08% | viability, T/C (second compound 3.16 µM, first compound 0.003 µM): 2.07% | viability, T/C (second compound 3.16 µM, first compound 0.00949 µM): 0.1% | viability, T/C (second compound 3.16 µM, first compound 0.03 µM): 0.08% | viability, T/C (second compound 3.16 µM, first compound 0.0949 µM): 1.36% | viability, T/C (second compound 3.16 µM, first compound 0.3 µM): 1.67% | viability, T/C (second compound 10 µM, first compound 0.000949 µM): 0.06% | viability, T/C (second compound 10 µM, first compound 0.003 µM): 1.03% | viability, T/C (second compound 10 µM, first compound 0.00949 µM): 0.12% | viability, T/C (second compound 10 µM, first compound 0.03 µM): 0.11% | viability, T/C (second compound 10 µM, first compound 0.0949 µM): 2.27% | viability, T/C (second compound 10 µM, first compound 0.3 µM): 1.33%

CC1COCCN1c1cc(C2(S(C)(=N)=O)CC2)nc(-c2ccnc3[nH]ccc23)n1 (stereo unspecified) + CN1CCN(c2cc(C(=O)Nc3cc4cc(-c5cnn(C)c5)ccc4cn3)ccn2)CC1
IC50 (second compound 0.0316 µM): 4570 nM | IC50 (second compound 0.1 µM): 3950 nM | IC50 (second compound 0.316 µM): < 31.6 nM | IC50 (second compound 1 µM): < 31.6 nM | IC50 (second compound 3.16 µM): < 31.6 nM | IC50 (second compound 10 µM): < 31.6 nM | viability, T/C [1]: 115% | viability, T/C [2]: 116% | viability, T/C [3]: 103% | viability, T/C [4]: 97.1% | viability, T/C [5]: 59.5% | viability, T/C [6]: 27.5% | viability, T/C [7]: 109% | viability, T/C [8]: 95.4% | viability, T/C [9]: 96.8% | viability, T/C [10]: 83% | viability, T/C [11]: 54.3% | viability, T/C [12]: 26.5% | viability, T/C [13]: 33.3% | viability, T/C [14]: 45.9% | viability, T/C [15]: 39.8% | viability, T/C [16]: 34.8% | viability, T/C [17]: 19.1% | viability, T/C [18]: 9.89% | viability, T/C [19]: 0.39% | viability, T/C [20]: 0.82% | viability, T/C [21]: 0.84% | viability, T/C [22]: 0.41% | viability, T/C [23]: 0.31% | viability, T/C [24]: 0.11% | viability, T/C [25]: 1.1% | viability, T/C [26]: 0.7% | viability, T/C [27]: 0.19% | viability, T/C [28]: 0.15% | viability, T/C [29]: 0.15% | viability, T/C [30]: 1.68% | viability, T/C [31]: 0.16% | viability, T/C [32]: 0.16% | viability, T/C [33]: 0.22% | viability, T/C [34]: 0.22% | viability, T/C [35]: 0.22% | viability, T/C [36]: 0.19%

O=C(c1cc(Cc2n[nH]c(=O)c3ccccc23)ccc1F)N1CCN(C(=O)C2CC2)CC1 + CN1CCN(c2cc(C(=O)Nc3cc4cc(-c5cnn(C)c5)ccc4cn3)ccn2)CC1
IC50 (second compound 0.0316 µM): > 10000 nM | IC50 (second compound 0.1 µM): > 10000 nM | IC50 (second compound 0.316 µM): < 31.6 nM | IC50 (second compound 1 µM): < 31.6 nM | IC50 (second compound 3.16 µM): < 31.6 nM | IC50 (second compound 10 µM): < 31.6 nM | viability, T/C [1]: 105% | viability, T/C [2]: 106% | viability, T/C [3]: 104% | viability, T/C [4]: 100% | viability, T/C [5]: 86.5% | viability, T/C [6]: 72.1% | viability, T/C [7]: 115% | viability, T/C [8]: 111% | viability, T/C [9]: 110% | viability, T/C [10]: 98% | viability, T/C [11]: 84.4% | viability, T/C [12]: 68.2% | viability, T/C [13]: 37.2% | viability, T/C [14]: 39.2% | viability, T/C [15]: 43.6% | viability, T/C [16]: 46% | viability, T/C [17]: 42% | viability, T/C [18]: 32.6% | viability, T/C [19]: 0.41% | viability, T/C [20]: 0.25% | viability, T/C [21]: 0.62% | viability, T/C [22]: 0.21% | viability, T/C [23]: 0.92% | viability, T/C [24]: 1.08% | viability, T/C [25]: 0.08% | viability, T/C [26]: 0.44% | viability, T/C [27]: 0.12% | viability, T/C [28]: 0.15% | viability, T/C [29]: 0.79% | viability, T/C [30]: 0.38% | viability, T/C [31]: 0.08% | viability, T/C [32]: 0.14% | viability, T/C [33]: 0.72% | viability, T/C [34]: 0.15% | viability, T/C [35]: 0.23% | viability, T/C [36]: 0.5%
